Measured values as given in US8916604B2, “Compositions and methods for epigenetic modification of nucleic acid sequences” (Rutgers, The State University of New Jersey, priority 2011, dated 2014).

What was measured:
[1] = tested on: first 5 CpGs in the promoter region of Nrf2 gene; assay: Bisulfite genomic sequencing of TRAMP C1 cells; assay type: cell-based, mouse; conditions: 5 days, untreated control 96.8%
Method: (§1) The DIM used in the study contains approximately 98% of DIM purchased from Sigma-Aldrich t St. Louis, Mo., USA), TRAMP C1 cells (provided by Dr. Barbara Foster, Department of Pharmacology and Therapeutics, Roswell Park Cancer institute, Buffalo. NY), originally derived from TRAMP prostate tumor, were cultured in Dulbecco's Modified Eagle's Medium (Invitrogen Corp., Carlsbad, Calif. U.S.A.) supplemented with 10% (V/V) fetal bovine serum (FBS) (Invitrogen Corp., Grand Island, N.Y., U.S.A.), penicillin 100 U/ml, and streptomycin 100 μg/ml (Invitrogen Corp., Grand Island, N.Y., U.S.A.), Cells were maintained in a humidified incubator with 5% CO2 at 37° C. Cells were seeded in 10 cm plates for 24 h and then treated with 0.1% DMSO (control) or different concentrations of DIM in 1% FBS containing medium for 5 days. The medium was changed every 2 days (20),
Genomic DNA was isolated from the control or DIM treated TRAMP C1 cells and TRAMP dorso-lateral prostate tissues collected from control and DIM treated groups pooled and homogenized using the DNeasy tissue kit (Qiagen, Valencia, Calif., U.S.A.). The genomic DNAs were extracted and subjected to bisulfite conversion carried out using 750 ng of genomic DNA and applying to EZ DNA Methylation Gold Kits (Zymo Research Corp., Orange, Calif., U.S.A.) following the manufacturer's instructions. […]

[2] = tested on: first 5 CpGs of Nrf2 gene promoter; assay: Methylated DNA immunoprecipitation (MeDIP) in TRAMP C1 cells; assay type: cell-based, mouse
Method: as §1
Genomic DNA (8 μg each) extracted from control and DIM treated TRAMP C1 cells were used for the MeDIP analysis, analogous to other chromatin immuno-precipitation (ChIP) analysis. The DNAs were adjusted to 150 μl using TE buffer in DNA. LoBind tubes. DNAs were fragmented by sonication on ice-water using a Bioruptor sonicator (Diagnode Inc., Sparta, N.J., U.S.A.) and the size of sheared DNA fragment (around 300 to 500 bp) was checked by gel electrophoresis. […]

With c1ccc2c(Cc3c[nH]c4ccccc34)c[nH]c2c1 [DIM, 3,3′-diindolylmethane] the “methylation of the first 5 CpGs of Nrf2 promoter” value ([1]; 2.5 μM) was 73.7%, the “methylation of the first 5 CpGs of Nrf2 promoter” value ([1]; 5 μM) was 55.8% and the “methylated DNA bound by anti-mecyt antibody” value [2] was “reduced”.
